Laboratory results from patent US7704696B2, “Screening of compounds for OCTN2 transporter activity” (XenoPort, Inc., priority 2005, dated 2010).

Assays:
hOCTN2 [1] = biological target: T1, hOCTN2 (Homo sapiens, UniProt O76082); test: hOCTN2 direct uptake assay (LC-MS-MS, CHO-TREx-hOCTN2 cells); assay type: cell-based; parameters: expressed in transfected cells; host or cells: CHO-TREx cells (CHO-TREx-OCTN2 inducible cell line); conditions: CHO-TREx-hOCTN2 cells induced to express hOCTN2, specific uptake
T1 sequence (O76082 1-557): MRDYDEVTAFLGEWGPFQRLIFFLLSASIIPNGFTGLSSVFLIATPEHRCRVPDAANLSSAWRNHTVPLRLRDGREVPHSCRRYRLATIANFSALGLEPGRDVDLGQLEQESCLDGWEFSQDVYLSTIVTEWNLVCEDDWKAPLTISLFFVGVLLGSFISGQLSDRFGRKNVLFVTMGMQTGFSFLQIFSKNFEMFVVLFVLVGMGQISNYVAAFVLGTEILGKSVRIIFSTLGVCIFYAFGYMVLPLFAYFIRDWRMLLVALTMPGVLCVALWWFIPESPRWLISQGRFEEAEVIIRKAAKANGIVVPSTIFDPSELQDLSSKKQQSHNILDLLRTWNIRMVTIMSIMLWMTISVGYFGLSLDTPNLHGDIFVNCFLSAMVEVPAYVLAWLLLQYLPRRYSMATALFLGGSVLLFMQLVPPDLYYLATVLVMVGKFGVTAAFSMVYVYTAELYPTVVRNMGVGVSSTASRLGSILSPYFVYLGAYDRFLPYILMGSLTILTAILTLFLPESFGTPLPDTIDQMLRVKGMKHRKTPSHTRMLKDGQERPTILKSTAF
Procedure: (§1) A modified direct uptake assay was developed to determine the ability of test compounds to be transported into CHO-TREx cells induced to over-express hOCTN2. Four concentrations (bracketing the affinity as measured by competition assays) per compound were routinely tested. Non-specific uptake was determined by measuring the uptake into cells not induced to express the transporter (“no tet”).
(§2) The direct uptake assays were prepared as follows: Compounds were prepared for assay by diluting a 100 mM stock concentration (in DMSO or water, depending on compound solubility) to the appropriate working concentration. Typically, four concentrations bracketing the IC50 were tested. The highest test concentration for each compound was made in an Eppendorf tube and diluted into HBSS. The samples were robustly vortexed and centrifuged for 10 minutes at 13,200 rpm to spin down any precipitate. The supernatant from these samples (˜150 μl/well) was carefully removed and placed into six wells of row A (cmpd 1: A1-6; cmpd 2: A7-12) or row E (cmpd 3: E1-6; cmpd 4: E7-12) of a 96-well polypropylene “compound” plate. Three additional 2-fold dilutions were made in the subsequent rows (B-D or […]) in HBSS. […]

hOCTN2 [2] = biological target: T1, hOCTN2; test: hOCTN2 competition uptake assay (3H-carnitine uptake into CHO-TREx-hOCTN2 cells); assay type: cell-based; parameters: expressed in transfected cells; host or cells: CHO-TREx cells (CHO-TREx-OCTN2 inducible cell line)
Procedure: A modified competition uptake assay was developed to determine the ability of a test compound(s) to inhibit the uptake of radiolabeled substrates into CHO-TREx-hOCTN2 cells induced to over-express hOCTN2. The results are stated as affinities (IC50).
The competition uptake assay was prepared as follows: Compounds were prepared for assay by diluting a 100 mM stock concentration (in DMSO) to the appropriate working concentration. Typically, seven-point dose response curves were prepared starting at a final assay concentration of 1 mM and carrying out three-fold dilutions. […]
Scintillation fluid (200 μl) (Optiphase Supermix (Perkin Elmer) was added to each well, and the plate was covered with a 96-well adhesive plate cover and placed on a shaker for 10 minutes. The plates were counted on a 96-well plate scintillation counter for 60 sec/well. The data were analyzed using a sigmoidal dose response curve-fitting program (Prism, GraphPad, Inc, San Diego, Calif.; equation: one-site competition).
FIG. 7 depicts the results of a competition experiment using CHO-TREx-OCTN2 cells. ^3H-carnitine was used as the substrate and unlabeled carnitine was used as the competitor. […] Non-specific uptake was determined by measuring the uptake into cells not induced to express the transporter (“no tet”). […]

hOCTN2 [3] = biological target: T1, hOCTN2; test: Oocyte uptake assay, oocytes injected with OCTN2 cRNA; assay type: cell-based; parameters: expressed in transfected cells; host or cells: Xenopus oocytes injected with OCTN2 cRNA; conditions: Xenopus oocytes
PgP = biological target: T2, PgP (Homo sapiens, UniProt P08183); test: Transwell monolayer efflux assay, MDCK cells with TREx-PgP; assay type: cell-based
T2 construct: expressed in transfected cells; host or cells: MDCK cells
T2 sequence (P08183 whole entry): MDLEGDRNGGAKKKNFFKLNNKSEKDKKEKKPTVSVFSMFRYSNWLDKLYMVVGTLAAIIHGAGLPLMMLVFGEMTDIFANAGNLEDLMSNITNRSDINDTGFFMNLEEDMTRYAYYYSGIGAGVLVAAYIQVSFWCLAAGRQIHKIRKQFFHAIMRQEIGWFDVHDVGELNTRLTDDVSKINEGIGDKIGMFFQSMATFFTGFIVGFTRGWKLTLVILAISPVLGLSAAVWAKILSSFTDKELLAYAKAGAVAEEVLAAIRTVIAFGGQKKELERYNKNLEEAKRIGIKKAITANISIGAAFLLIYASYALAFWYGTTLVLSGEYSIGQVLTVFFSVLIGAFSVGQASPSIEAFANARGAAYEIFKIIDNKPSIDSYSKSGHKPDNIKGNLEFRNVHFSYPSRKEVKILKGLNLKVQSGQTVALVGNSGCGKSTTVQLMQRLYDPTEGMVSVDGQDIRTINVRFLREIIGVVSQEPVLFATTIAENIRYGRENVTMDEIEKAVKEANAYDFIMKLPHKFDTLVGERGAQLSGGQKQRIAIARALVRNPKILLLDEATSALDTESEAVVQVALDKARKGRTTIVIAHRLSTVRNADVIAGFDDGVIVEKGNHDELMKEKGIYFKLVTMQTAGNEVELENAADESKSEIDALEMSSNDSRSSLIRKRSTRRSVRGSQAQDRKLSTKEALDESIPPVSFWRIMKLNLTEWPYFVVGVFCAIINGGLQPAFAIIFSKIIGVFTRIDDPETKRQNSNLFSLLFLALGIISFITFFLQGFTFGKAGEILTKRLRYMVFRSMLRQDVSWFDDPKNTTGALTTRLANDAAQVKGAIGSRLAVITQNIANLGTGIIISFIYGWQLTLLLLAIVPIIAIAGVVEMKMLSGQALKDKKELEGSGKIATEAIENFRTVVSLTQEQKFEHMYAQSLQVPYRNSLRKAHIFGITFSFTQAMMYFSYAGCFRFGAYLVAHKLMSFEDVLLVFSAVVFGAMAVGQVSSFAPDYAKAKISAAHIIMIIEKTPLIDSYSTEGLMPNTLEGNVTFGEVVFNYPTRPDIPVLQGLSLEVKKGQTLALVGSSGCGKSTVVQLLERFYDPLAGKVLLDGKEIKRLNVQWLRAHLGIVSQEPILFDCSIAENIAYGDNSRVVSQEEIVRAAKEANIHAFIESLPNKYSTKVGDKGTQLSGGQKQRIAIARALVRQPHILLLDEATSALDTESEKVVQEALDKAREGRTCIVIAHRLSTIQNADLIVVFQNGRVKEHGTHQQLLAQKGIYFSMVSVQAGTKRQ
Procedure: Transwell monolayer efflux assays can be performed by transfecting MDCK cells with the tetracycline-inducible TREx-PgP expression vector. The cells optionally can be transfected with a nucleic acid encoding the transporter of interest. The transfected cells are seeded on polycarbonate filter membranes in transwell dishes and grown for 3-5 days, yielding a polarized monolayer with tight junctions between cells.

[4] = substrate: C[N+](C)(C)CC(O)CC(=O)[O-]; test: hOCTN2 direct uptake assay (LC-MS-MS, CHO-TREx-hOCTN2 cells); assay type: cell-based, human; conditions: other: CHO-TREx-hOCTN2 cells induced to express hOCTN2, specific uptake
Procedure: as §1, §2

[5] = 2.5 nM 3H-vinblastine, in the presence of 250 μM verapamil

## C[N+](C)(C)CC(O)CC(=O)[O-] (centres unmarked) [Carnitine, carnitine]
hOCTN2 [1]
  Direct Uptake Vmax: 7.7 pmol/min/well
hOCTN2 [2]; cells induced to express OCTN2, unlabeled carnitine as competitor
  uptake of labeled carnitine with increasing unlabeled carnitine: uptake of labeled carnitine decreased as the concentration of unlabeled carnitine increased
hOCTN2 [2]; inhibition of 3H-carnitine uptake, CHO-TREx-hOCTN2 cells induced to express hOCTN2
  IC50: 6.3 µM
hOCTN2 [3]
  3H-carnitine uptake in OCTN2-expressing oocytes versus noninjected controls: higher levels of ^3H-carnitine uptake than noninjected controls

## CC[C@]1(O)C[C@@H]2CN(CCc3c([nH]c4ccccc34)[C@@](C(=O)OC)(c3cc4c(cc3OC)N(C)[C@H]3[C@@](O)(C(=O)OC)[C@H](OC(C)=O)[C@]5(CC)C=CCN6CC[C@]43[C@@H]65)C2)C1 [^3H-vinblastine, vinblastine]
PgP; [5]
  apical to basolateral transport: strongly increased
  basolateral to apical transport: strongly decreased
PgP; concluded from transport with and without verapamil
  PgP substrate status: substrate of PgP

B1: hOCTN2 (Homo sapiens) (protein)
chain: MRDYDEVTAFLGEWGPFQRLIFFLLSASIIPNGFTGLSSVFLIATPEHRCRVPDAANLSSAWRNHTVPLRLRDGREVPHSCRRYRLATIANFSALGLEPGRDVDLGQLEQESCLDGWEFSQDVYLSTIVTEWNLVCEDDWKAPLTISLFFVGVLLGSFISGQLSDRFGRKNVLFVTMGMQTGFSFLQIFSKNFEMFVVLFVLVGMGQISNYVAAFVLGTEILGKSVRIIFSTLGVCIFYAFGYMVLPLFAYFIRDWRMLLVALTMPGVLCVALWWFIPESPRWLISQGRFEEAEVIIRKAAKANGIVVPSTIFDPSELQDLSSKKQQSHNILDLLRTWNIRMVTIMSIMLWMTISVGYFGLSLDTPNLHGDIFVNCFLSAMVEVPAYVLAWLLLQYLPRRYSMATALFLGGSVLLFMQLVPPDLYYLATVLVMVGKFGVTAAFSMVYVYTAELYPTVVRNMGVGVSSTASRLGSILSPYFVYLGAYDRFLPYILMGSLTILTAILTLFLPESFGTPLPDTIDQMLRVKGMKHRKTPSHTRMLKDGQERPTILKSTAF
notes: expressed in transfected cells; host or cells: CHO-TREx cells (CHO-TREx-OCTN2 inducible cell line)
[4]
  Km: 300 µM
